From patent publication US4661502A (priority 1983, dated 1987)

Key:
[1] = system: Hypercholesterolemic Rats; set-up: species or system Wistar rats; settings: rat, in vivo
male Wistar rats = settings: rat, in vivo

CN(C)C(=O)Oc1cccc([N+](C)(C)C)c1 [Neostigmine bromide]
LDL-cholesterol [1]: 76.6 ± 10.7 mg %
Total cholesterol [1]: 131.2 ± 11.8 mg %
Acute toxicity: state of the rats after administration (male Wistar rats): all the rats were dead
